Measured values published in patent US20250042880A1 (UNIVERSITY OF KENTUCKY RESEARCH FOUNDATION, priority 2021, published 2025).

Assays:
[1] = tested on: HCT116 cells; assay: Cell proliferation inhibition assay, HCT116; format: cell-based; conditions: for inhibition at 3 µM / inhibition at 10 µM / inhibition at 1 µM: Homo sapiens; for inhibition at 3 µM: HCT-116, 3 μM; for inhibition at 10 µM: HCT-116, 10 μM; for inhibition at 1 µM: HCT-116, 1 μM
Experimental: (§1) Cell proliferation inhibition assay-Cell proliferation inhibition assay was performed as previously reported (48). All compounds to be tested were dissolved at 10 mM in DMSO. The cells were seeded into 12-well plates at a density of 40,000 cells per well in 1 mL of culture medium and were cultured overnight at 37° C. Either 1 μL of the compounds or the vehicle control (DMSO) was added to the cells. After 5 days, the medium was removed, and 200 μL of 0.25% trypsin was added. The cells were resuspended in 800 μL phosphate-buffered saline (PBS) and counted with Vi-CELL XR 2.03 (Beckman Coulter, Inc. USA). The ratio R of the number of viable cells in the compound-treated group to the number of viable cells in the DMSO-treated group was called relative growth rate, and the growth inhibition was calculated as (1−R)*100.
(§2) Cell proliferation inhibition assay was conducted according to a previous report (48). The cells were split into 12-well plates at a density of 40,000 cells per well in 1 mL of culture medium and were cultured overnight at 37° C. Either 1 μL of the compounds dissolved at 10 mmol/L in DMSO or the vehicle control (DMSO) was added to the cells. After 5 days, removed the medium, and 200 μL of 0.25% trypsin was added. The cells were resuspended in phosphate-buffered saline (PBS) and counted with Vi-CELL XR 2.03 (Beckman Coulter, Inc. USA). The ratio R of the number of viable cells in the compound treatment group to the number of viable cells in the DMSO treatment group was defined as the relative growth rate, and the growth inhibition rate was calculated as (1−R)*100.

[2] = tested on: OCV-8 Cell; assay: OCV-8 cell inhibition; format: cell-based; conditions: read-out: OCV-8 Cell Inhibiton; for inhibition at 0.3 µM: 300 nM
[3] = tested on: LS174T cells; assay: Cell proliferation inhibition assay, LS174T; format: cell-based; conditions: for combinational effect with BAY-876 on proliferation of LS174T cells: in combination with BAY-876
Experimental: as §1, §2

[4] = cited from earlier work
[5] = tested on: Pt2377 cells; assay: Cell proliferation inhibition assay, Pt2377; format: cell-based; conditions: 120 h; 5 days, viable cells counted
Experimental: as §1

[6] = tested on: LS174T xenografts; assay: LS174T xenografts in SCID mice; format: in vivo, mouse; conditions: BAY-876 3 mg/kg/day, DBI-1 40 mg/kg/day
Experimental: In vivo evaluation of anti-cancer activity in LS174T xenografts—The mouse studies were conducted with the approval of the University of Kentucky Institutional Animal Care and Use Committee (2020-3531). All methods were carried out in compliance with the relevant guidelines and regulations according to protocols. The LS174T cells in exponential growth phase were trypsinized and resuspended in 50% Matrigel (Corning, Glendale, Arizona). Cells (1.2×10^6) were subcutaneously injected on the lower flanks of severe combined immunodeficient mice. The tumor volumes were calculated based on the formula Length×width^2/2. When tumors reached an average volume of 100 mm^3, the mice were divided into control and treatment groups (3 male and 3 female mice/group, two tumors on each mouse). After tumors were established, BAY-876 was given to the mice by gavage feeding to the BAY-876 group at the dose of 3 mg/kg/day. DBI-1 was daily intraperitoneally (i.p.) administered to the DBI-1 group at dose of 40 mg/kg mouse body weight. Mice in the combination treatment group were administered both oral BAY-876 at the dose of 3 mg/kg/day and i.p. DBI-1 at dose of 40 mg/kg mouse body weight. Tumors and mouse weights were measured every three days and the experiment was stopped at day 12. Tumors were isolated and fixed in 10% neutral buffered formalin. Tumor sections were analyzed with H&E and Ki-67 staining at Markey Cancer Center's Biospecimen Procurement and Translational Pathology Shared Resource Facility (BPTP SRF).

Structure (SMILES) | inhibition at 3 µM [1] | inhibition at 10 µM [1] | also measured
O=c1c(-c2ccc(Br)cc2)coc2cc(OCCCCCCCCn3ccnc3)ccc12 [WZY-1-143] | 61.2% | – | –
COc1ccc(-c2coc3cc(OCCN4CCN(CCO)CC4)ccc3c2=O)cc1 [WZY-1-61] | 0% | 52% | –
O=c1c(-c2ccccc2F)coc2cc(OCCN3CCN(CCO)CC3)ccc12 [WZY-1-67] | 0% | 0% | –
O=c1c(-c2ccc(Br)cc2)coc2cc(OCCCCCCCCN3CCSCC3)ccc12 [WZY-1-103] | 42.6% | – | –
O=c1c(-c2ccc(Br)cc2)coc2cc(OCCN3CCNCC3)ccc12 [WZY-1-45] | 94% | 93% | inhibition at 0.3 µM [2]: 43%; inhibition at 1 µM [2]: 97%
CN(C)C(=N)N=C(N)N [Metformin] | – | – | combinational effect with BAY-876 on proliferation of LS174T cells [3]: synergistical effects with BAY-876
O=c1c(-c2ccc(Br)cc2)coc2cc(OCCCCN3CCN(CCO)CC3)ccc12 [WZY-1-95] | 99% | – | inhibition at 0.3 µM [2]: 30%; inhibition at 1 µM [2]: 93%
O=c1c(-c2ccc(Br)cc2)coc2cc(OCCCCCCCCN3CCN(CCO)CC3)ccc12 [WZY-1-97] | 99.7% | – | inhibition at 0.3 µM [2]: 39%; inhibition at 1 µM [2]: 96%
O=c1c(-c2ccccc2Cl)coc2cc(OCCN3CCN(CCO)CC3)ccc12 [WZY-1-129] | 13% | – | –
Cc1nc(-c2nc(-c3ccc(OC(F)(F)F)cc3)no2)nn1Cc1cccc(N2CCC(S(C)(=O)=O)CC2)c1 [IACS-010759] | – | – | tolerability in preclinical models ([4]; 25 mg/kg/day): not tolerated; antitumor effect in preclinical models ([4]; 5-10 mg/kg/day): tumor regression
O=c1c(-c2ccc(Cl)cc2)coc2cc(OCCN3CCNCC3)ccc12 [WZY-1-43] | 92% | 93% | inhibition at 0.3 µM [2]: 31%; inhibition at 1 µM [2]: 97%
O=c1c(-c2ccc(Cl)c(Cl)c2)coc2cc(OCCN3CCNCC3)ccc12 [XDQ-1-25] | 93% | 92.5% | inhibition at 0.3 µM [2]: 72%; inhibition at 1 µM [2]: 99%
O=c1c(-c2ccc(F)cc2)coc2cc(OCCN3CCNCC3)ccc12 [WZY-1-31] | 0% | 89% | –
O=c1c(-c2ccc(Cl)cc2Cl)coc2cc(OCCN3CCNCC3)ccc12 [WZY-1-123] | 67.1% | – | –
CN(C)CCN(C)CCOc1ccc2c(=O)c(-c3ccc(Br)cc3)coc2c1 [WZY-1-193] | – | – | inhibition at 0.3 µM [2]: 57%; inhibition at 1 µM [2]: 87%; inhibition at 1 µM [1]: 26%
O=c1c(-c2ccc(Br)cc2)coc2cc(OCCn3ccnc3)ccc12 [WZY-1-131] | 22% | – | –
O=c1c(-c2ccc(Br)cc2)coc2cc(OCCCCn3ccnc3)ccc12 [WZY-1-139] | 58.7% | – | –

Structure (SMILES) | inhibition at 3 µM [1] | inhibition at 10 µM [1] | also measured
O=c1c(-c2ccc(F)cc2)coc2cc(OCCN3CCN(CCO)CC3)ccc12 [WZY-1-33] | 0% | 35% | –
O=c1c(-c2ccc(Br)cc2)coc2cc(OCCCCn3cccn3)ccc12 [WZY-1-141] | 63.9% | – | –
O=c1c(-c2ccc(Cl)cc2Cl)coc2cc(OCCN3CCN(CCO)CC3)ccc12 [WZY-1-125] | 43.1% | – | –
C=C(C)[C@H]1Cc2c(ccc3c2O[C@@H]2COc4cc(OC)c(OC)cc4[C@@H]2C3=O)O1 [Rotenone] | – | – | combinational effect with BAY-876 on proliferation of LS174T cells [3]: synergistical effects with BAY-876
O=c1c(-c2ccc(F)c(F)c2)coc2cc(OCCN3CCNCC3)ccc12 [XDQ-1-9] | 34% | 94% | –
O=c1c(-c2ccc(Br)cc2)coc2cc(OCCCCN3CCOCC3)ccc12 [WZY-1-155] | – | – | HCT116 Cells Proliferation Inhibition % ([1]; 3 μM): 65.3%
O=c1c(-c2ccc(Cl)c(Cl)c2)coc2cc(OCCN3CCN(CCO)CC3)ccc12 [XDQ-1-19] | 95% | 94% | inhibition at 0.3 µM [2]: 60%; inhibition at 1 µM [2]: 99%
O=c1c(-c2ccc(Cl)cc2)coc2cc(OCCN3CCN(CCO)CC3)ccc12 [WZY-1-47] | 50% | 94% | –
O=c1c(-c2ccc(Br)cc2)coc2cc(OCCCCN3CCNCC3)ccc12 [WZY-1-91] | 99.9% | – | inhibition at 0.3 µM [2]: 34%; inhibition at 1 µM [2]: 94%
O=c1c(-c2ccc(Br)cc2)coc2cc(OCCCCN3CCOCC3)ccc12 [WZY-1-113] | 62.7% | – | –
O=c1c(-c2ccc(Br)cc2)coc2cc(OCCN3CCOCC3)ccc12 [WZY-1-77] | 61.4% | – | –
COc1ccc(-c2coc3cc(OCCN4CCNCC4)ccc3c2=O)cc1 [WZY-1-59] | 0% | 92% | –
O=c1c(-c2ccc(Br)cc2)coc2cc(OCCCCCCCCN3CCOCC3)ccc12 [WZY-1-101] | 50.6% | – | –
O=c1c(-c2ccc(F)c(F)c2)coc2cc(OCCN3CCN(CCO)CC3)ccc12 [XDQ-1-13] | 10% | 61% | –
O=c1c(-c2ccc(Cl)cc2)coc2cc(OCCN3CCOCC3)ccc12 [WZY-1-149] | 51.4% | – | –
CN(C)CCN(C)CCCCOc1ccc2c(=O)c(-c3ccc(Br)cc3)coc2c1 [DBI-1, 3-(4-Bromophenyl)-7-(4-((2-(dimethylamino)ethyl)(methyl)amino)butoxy)-4H-chromen-4-one] | – | – | inhibition at 0.3 µM [2]: 57%; inhibition at 1 µM [2]: 96%; IC50 [5]: 1.4 µM; inhibition at 1 µM [1]: 45%; IC50 ([3]; Homo sapiens, LS174T, 120 h, 5 days, viable cells counted): 1.2 µM; toxicity based on mice body weight growth rate [6]: No significant toxicity
O=c1c(-c2ccc(Br)cc2)coc2cc(OCCN3CCN(CCO)CC3)ccc12 [WZY-1-49] | 80% | 94% | –
